From ChEMBL document CHEMBL1201862, “PubChem BioAssay data set” (2004)
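Grown in 96-well plates, cells were treated for 48 hours with each compound at five concentrations. Insufficient inhibition: endpoint recorded as highest concentration tested. GI50: concentration for 50% inhibition of growth.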 Calls of active or inactive are those of the source. Rule as the data show it: active = GI50 up to about 1.1 µM and inactive = higher.

Legend:
Experiment in all cases: growth of human tumour cells (NCI), 48 h
[1] = system: COLO 205
[2] = system: DMS-114
[3] = system: HL-60
[4] = system: HOP-62
[5] = system: K562
[6] = system: LOX IMVI
[7] = system: M14
[8] = system: NCI-H226
[9] = system: NCI-H23
[10] = system: NCI-H522
[11] = system: OVCAR-8
[12] = system: RPMI-8226
[13] = system: RXF 393
[14] = system: SF-539
[15] = system: SNB-75
[16] = system: UACC-257
[17] = system: CAKI-1
[18] = system: OVCAR-4
[19] = system: BT-549
[20] = system: MDA-MB-231

SMILES	GI50 [1]	GI50 [2]	GI50 [3]	GI50 [4]	GI50 [5]	GI50 [6]	GI50 [7]	GI50 [8]	GI50 [9]	GI50 [10]	GI50 [11]	GI50 [12]	GI50 [13]	GI50 [14]	GI50 [15]	GI50 [16]	GI50 [17]	GI50 [18]	GI50 [19]	GI50 [20]
COC(=O)/C1=C/C2CC(/C=C(/c3ccccc3)C(=O)O1)C2	19.1 µM (inactive)	19 µM (inactive)	22.5 µM (inactive)	44.2 µM (inactive)	27.8 µM (inactive)	17.5 µM (inactive)	29.2 µM (inactive)	20.4 µM (inactive)	17 µM (inactive)	16.7 µM (inactive)	23.1 µM (inactive)	18.3 µM (inactive)	25.1 µM (inactive)	33.3 µM (inactive)	5.93 µM (inactive)	8.53 µM (inactive)	–	–	–	–
c1ccc2c(c1)c1ccccc1c1n[se]nc21	> 100 µM (inactive)	> 100 µM (inactive)	> 100 µM (inactive)	–	> 100 µM (inactive)	> 100 µM (inactive)	> 100 µM (inactive)	–	> 100 µM (inactive)	> 100 µM (inactive)	50.2 µM (inactive)	> 100 µM (inactive)	68.5 µM (inactive)	34.6 µM (inactive)	28.1 µM (inactive)	> 100 µM (inactive)	36.5 µM (inactive)	> 100 µM (inactive)	–	–
CC(/C=C1\CCC(CN(C)C)C1=O)c1cccc(Br)c1 (stereo not given)	17.9 µM (inactive)	19.7 µM (inactive)	3.06 µM (inactive)	22.7 µM (inactive)	2.77 µM (inactive)	–	14.9 µM (inactive)	22.3 µM (inactive)	19.5 µM (inactive)	8.05 µM (inactive)	18.2 µM (inactive)	2 µM (inactive)	13.3 µM (inactive)	18 µM (inactive)	–	17.3 µM (inactive)	8.15 µM (inactive)	17 µM (inactive)	–	–
CC(C)c1ccc(C2C3=C(N=C4SCC(=O)N42)C(=O)c2ccccc23)cc1 (stereo not given)	> 100 µM (inactive)	53.5 µM (inactive)	36 µM (inactive)	> 100 µM (inactive)	54 µM (inactive)	–	> 100 µM (inactive)	51.4 µM (inactive)	75.3 µM (inactive)	22.4 µM (inactive)	> 100 µM (inactive)	43.3 µM (inactive)	–	> 100 µM (inactive)	22.3 µM (inactive)	> 100 µM (inactive)	99.1 µM (inactive)	43.4 µM (inactive)	–	–
CC(C)=CC(=O)Oc1ccc([N+](=O)[O-])cc1	> 100 µM (inactive)	> 100 µM (inactive)	24.7 µM (inactive)	> 100 µM (inactive)	> 100 µM (inactive)	–	> 100 µM (inactive)	> 100 µM (inactive)	> 100 µM (inactive)	2.18 µM (inactive)	> 100 µM (inactive)	> 100 µM (inactive)	> 100 µM (inactive)	> 100 µM (inactive)	> 100 µM (inactive)	> 100 µM (inactive)	20.7 µM (inactive)	> 100 µM (inactive)	–	–
O=C1CCCc2ccc([N+](=O)[O-])c(O)c21	> 100 µM (inactive)	66.1 µM (inactive)	92.5 µM (inactive)	> 100 µM (inactive)	> 100 µM (inactive)	> 100 µM (inactive)	> 100 µM (inactive)	40.8 µM (inactive)	> 100 µM (inactive)	66.8 µM (inactive)	> 100 µM (inactive)	–	55.1 µM (inactive)	> 100 µM (inactive)	45.6 µM (inactive)	> 100 µM (inactive)	37.9 µM (inactive)	> 100 µM (inactive)	–	–
C[N+](C)(C)CC1CCCC/C1=N\OC(=O)c1ccccc1 (stereo not given)	> 100 µM (inactive)	> 100 µM (inactive)	–	> 100 µM (inactive)	> 100 µM (inactive)	> 100 µM (inactive)	> 100 µM (inactive)	–	> 100 µM (inactive)	> 100 µM (inactive)	> 100 µM (inactive)	> 100 µM (inactive)	> 100 µM (inactive)	> 100 µM (inactive)	> 100 µM (inactive)	> 100 µM (inactive)	> 100 µM (inactive)	> 100 µM (inactive)	–	–
S=P(c1ccccc1)(c1ccccc1)C1(C2(P(=S)(c3ccccc3)c3ccccc3)CC2)CC1	> 100 µM (inactive)	> 100 µM (inactive)	–	> 100 µM (inactive)	> 100 µM (inactive)	> 100 µM (inactive)	> 100 µM (inactive)	> 100 µM (inactive)	> 100 µM (inactive)	> 100 µM (inactive)	> 100 µM (inactive)	–	> 100 µM (inactive)	> 100 µM (inactive)	> 100 µM (inactive)	–	–	> 100 µM (inactive)	–	–
Sc1nnc(/C=C/c2ccc(Cl)c(Cl)c2)[nH]1	0.0202 µM (active)	0.0298 µM (active)	> 100 µM (inactive)	41.4 µM (inactive)	> 100 µM (inactive)	> 100 µM (inactive)	–	> 100 µM (inactive)	> 100 µM (inactive)	94 µM (inactive)	> 100 µM (inactive)	–	> 100 µM (inactive)	> 100 µM (inactive)	–	> 100 µM (inactive)	–	–	–	–
CC1OC(n2cc(Cl)c(=O)[nH]c2=O)C=C(OC(=O)c2ccccc2)C1=O (stereo not given)	> 100 µM (inactive)	> 100 µM (inactive)	> 100 µM (inactive)	> 100 µM (inactive)	> 100 µM (inactive)	> 100 µM (inactive)	> 100 µM (inactive)	–	> 100 µM (inactive)	–	> 100 µM (inactive)	> 100 µM (inactive)	> 100 µM (inactive)	> 100 µM (inactive)	> 100 µM (inactive)	> 100 µM (inactive)	> 100 µM (inactive)	> 100 µM (inactive)	–	–
O=S(=O)(/C=C/C(=C/c1ccccc1)S(=O)(=O)c1ccccc1)c1ccccc1	2.16 µM (inactive)	1.57 µM (inactive)	0.543 µM (active)	1.94 µM (inactive)	1 µM (active)	0.658 µM (active)	1.28 µM (inactive)	–	1.93 µM (inactive)	1.45 µM (inactive)	1.63 µM (inactive)	0.61 µM (active)	1.73 µM (inactive)	1.77 µM (inactive)	1.87 µM (inactive)	1.55 µM (inactive)	1.51 µM (inactive)	1.67 µM (inactive)	–	–
Cc1noc2cccc(O)c12	> 100 µM (inactive)	> 100 µM (inactive)	> 100 µM (inactive)	> 100 µM (inactive)	> 100 µM (inactive)	> 100 µM (inactive)	> 100 µM (inactive)	> 100 µM (inactive)	> 100 µM (inactive)	> 100 µM (inactive)	> 100 µM (inactive)	–	> 100 µM (inactive)	> 100 µM (inactive)	> 100 µM (inactive)	> 100 µM (inactive)	> 100 µM (inactive)	> 100 µM (inactive)	–	–
Cc1cc(NS(=O)(=O)c2ccc(Nc3c4ccccc4nc4c(C(=O)Nc5ccc(S(N)(=O)=O)cc5)cccc34)cc2)no1	34.8 µM (inactive)	28.5 µM (inactive)	–	35.4 µM (inactive)	44.3 µM (inactive)	35 µM (inactive)	> 100 µM (inactive)	–	47.5 µM (inactive)	24.2 µM (inactive)	51.9 µM (inactive)	> 100 µM (inactive)	90.6 µM (inactive)	21.3 µM (inactive)	72.8 µM (inactive)	> 100 µM (inactive)	> 100 µM (inactive)	23.4 µM (inactive)	–	–
C=C(c1ccccc1N)[C@@]1(O)C[C@H](/C(=C\C)CO)C[C@@H]1NCc1ccccc1	16.7 µM (inactive)	17 µM (inactive)	13.3 µM (inactive)	32.7 µM (inactive)	18.6 µM (inactive)	17.1 µM (inactive)	15.2 µM (inactive)	15 µM (inactive)	29.9 µM (inactive)	17.1 µM (inactive)	24.5 µM (inactive)	19.1 µM (inactive)	16.7 µM (inactive)	16.3 µM (inactive)	10.8 µM (inactive)	17.9 µM (inactive)	–	26.7 µM (inactive)	–	–
O=C(CSc1nc(-c2ccccc2)c(-c2ccccc2)[nH]1)N/N=C/c1ccc(O)cc1	19.5 µM (inactive)	22.1 µM (inactive)	20 µM (inactive)	19.3 µM (inactive)	23.6 µM (inactive)	17.9 µM (inactive)	19 µM (inactive)	31.3 µM (inactive)	3.76 µM (inactive)	20.2 µM (inactive)	17.2 µM (inactive)	25.7 µM (inactive)	24.2 µM (inactive)	19.1 µM (inactive)	19.7 µM (inactive)	4.86 µM (inactive)	–	–	–	–
CC(C)(C)C1CCC2c3c([nH]c4ccccc34)C3C(=O)N(c4ccc(Br)cc4)C(=O)C3C2C1 (stereo not given)	11.1 µM (inactive)	19 µM (inactive)	13.3 µM (inactive)	21.6 µM (inactive)	15.7 µM (inactive)	15.7 µM (inactive)	26.1 µM (inactive)	18.7 µM (inactive)	18.8 µM (inactive)	–	21.7 µM (inactive)	17.1 µM (inactive)	–	21.1 µM (inactive)	19.5 µM (inactive)	17.8 µM (inactive)	19.9 µM (inactive)	16.9 µM (inactive)	–	–
O=C(O)C1=C(C(=O)O)N(c2ccncc2)C(c2ccco2)=CC1c1ccccc1[N+](=O)[O-] (stereo not given)	14.2 µM (inactive)	–	2.88 µM (inactive)	13.4 µM (inactive)	2.85 µM (inactive)	2.01 µM (inactive)	7.01 µM (inactive)	9.59 µM (inactive)	12.4 µM (inactive)	1.77 µM (inactive)	16.7 µM (inactive)	2.79 µM (inactive)	7.94 µM (inactive)	2.11 µM (inactive)	7.4 µM (inactive)	2.22 µM (inactive)	15.5 µM (inactive)	13 µM (inactive)	13.2 µM (inactive)	14.2 µM (inactive)
